Test system: 883617-216-R-J1-PDC tumor spheroids, viability
Test: Anticancer human tumor 883617-216-R-J1-PDC patient-derived bladder carcinoma cell line growth inhibition [PI3K]
Conditions: spheroids with HUVEC and MSC; for IC50: curve of first compound; for viability, T/C: stronger effect = lower value; active = viability on the fitted dose curve at most 10% of control; inactive = the rest
Outline: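 Combination activity was assessed by viability in multicellular tumor spheroids carrying HUVEC and MSC components. Agents were tested with PI3K inhibitors from a Cmax-based top dose (or 10 microM) downward in half-log increments.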

[1] = second compound 0.00316 µM, first compound 0.000316 µM
[2] = second compound 0.00316 µM, first compound 0.001 µM
[3] = second compound 0.00316 µM, first compound 0.00316 µM
[4] = second compound 0.00316 µM, first compound 0.01 µM
[5] = second compound 0.00316 µM, first compound 0.0316 µM
[6] = second compound 0.00316 µM, first compound 0.1 µM
[7] = second compound 0.01 µM, first compound 0.000316 µM
[8] = second compound 0.01 µM, first compound 0.001 µM
[9] = second compound 0.01 µM, first compound 0.00316 µM
[10] = second compound 0.01 µM, first compound 0.01 µM
[11] = second compound 0.01 µM, first compound 0.0316 µM
[12] = second compound 0.01 µM, first compound 0.1 µM
[13] = second compound 0.0316 µM, first compound 0.000316 µM
[14] = second compound 0.0316 µM, first compound 0.001 µM
[15] = second compound 0.0316 µM, first compound 0.00316 µM
[16] = second compound 0.0316 µM, first compound 0.01 µM
[17] = second compound 0.0316 µM, first compound 0.0316 µM
[18] = second compound 0.0316 µM, first compound 0.1 µM
[19] = second compound 0.1 µM, first compound 0.000316 µM
[20] = second compound 0.1 µM, first compound 0.001 µM
[21] = second compound 0.1 µM, first compound 0.00316 µM
[22] = second compound 0.1 µM, first compound 0.01 µM
[23] = second compound 0.1 µM, first compound 0.0316 µM
[24] = second compound 0.1 µM, first compound 0.1 µM
[25] = second compound 0.316 µM, first compound 0.000316 µM
[26] = second compound 0.316 µM, first compound 0.001 µM
[27] = second compound 0.316 µM, first compound 0.00316 µM
[28] = second compound 0.316 µM, first compound 0.01 µM
[29] = second compound 0.316 µM, first compound 0.0316 µM
[30] = second compound 0.316 µM, first compound 0.1 µM
[31] = second compound 1 µM, first compound 0.000316 µM
[32] = second compound 1 µM, first compound 0.001 µM
[33] = second compound 1 µM, first compound 0.00316 µM
[34] = second compound 1 µM, first compound 0.01 µM
[35] = second compound 1 µM, first compound 0.0316 µM
[36] = second compound 1 µM, first compound 0.1 µM
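Note: spheroids exposed to agents for 7 days before the viability read.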

Cn1ncnc1[C@H]1c2n[nH]c(=O)c3cc(F)cc(c23)N[C@@H]1c1ccc(F)cc1 + COc1c(OCCCN2CCOCC2)ccc2c3n(c(=NC(=O)c4cnc(N)nc4)nc12)CCN3
inactive: viability, T/C [1] 88.1% | viability, T/C [2] 79.5% | viability, T/C [3] 87.2% | viability, T/C [4] 75.3% | viability, T/C [5] 67.2% | viability, T/C [6] 54.6% | viability, T/C [7] 63.2% | viability, T/C [8] 64.7% | viability, T/C [9] 64.9% | viability, T/C [10] 86.1% | viability, T/C [11] 54.8% | viability, T/C [12] 45% | viability, T/C [13] 31.3% | viability, T/C [14] 36.6% | viability, T/C [15] 35.3% | viability, T/C [16] 33.9% | viability, T/C [17] 39.3% | viability, T/C [18] 29% | viability, T/C [19] 16% | viability, T/C [20] 17.7% | viability, T/C [21] 16.2% | viability, T/C [22] 15.3% | viability, T/C [23] 15.6% | viability, T/C [24] 14.1%
> 100 nM: IC50 (second compound 0.00316 µM) | IC50 (second compound 0.01 µM)
< 0.316 nM: IC50 (second compound 0.0316 µM) | IC50 (second compound 0.1 µM) | IC50 (second compound 0.316 µM) | IC50 (second compound 1 µM)
active: viability, T/C [25] 5.21% | viability, T/C [26] 5.06% | viability, T/C [27] 5.56% | viability, T/C [28] 5.19% | viability, T/C [29] 5.74% | viability, T/C [30] 3.68% | viability, T/C [31] 4.93% | viability, T/C [32] 4.65% | viability, T/C [33] 3.52% | viability, T/C [34] 2.9% | viability, T/C [35] 3.13% | viability, T/C [36] 2.73%

CC(C)n1nc(-c2ccc3oc(N)nc3c2)c2c(N)ncnc21 + CC(Nc1ncnc2nc[nH]c12)c1cc2cccc(Cl)c2c(=O)n1-c1ccccc1
30 nM: IC50 (second compound 0.316 µM)
21.3 nM: IC50 (second compound 1 µM)
32.1 nM: IC50 (second compound 0.0316 µM)
13.5 nM: IC50 (second compound 3.16 µM)
inactive: viability, T/C [13] 91% | viability, T/C [14] 75.2% | viability, T/C [15] 76.8% | viability, T/C [16] 82% | viability, T/C [17] 50.4% | viability, T/C [18] 18.4% | viability, T/C [19] 95.3% | viability, T/C [20] 93% | viability, T/C [21] 87.6% | viability, T/C [22] 69.7% | viability, T/C [23] 54.5% | viability, T/C [24] 17.4% | viability, T/C [25] 87.4% | viability, T/C [26] 92.5% | viability, T/C [27] 81.7% | viability, T/C [28] 72.8% | viability, T/C [29] 49% | viability, T/C [30] 19.9% | viability, T/C [31] 91.2% | viability, T/C [32] 77.1% | viability, T/C [33] 80.2% | viability, T/C [34] 68.3% | viability, T/C [35] 40.2% | viability, T/C [36] 19.6% | viability, T/C (second compound 3.16 µM, first compound 0.000316 µM) 83.6% | viability, T/C (second compound 3.16 µM, first compound 0.001 µM) 58.9% | viability, T/C (second compound 3.16 µM, first compound 0.00316 µM) 63.2% | viability, T/C (second compound 3.16 µM, first compound 0.01 µM) 60.6% | viability, T/C (second compound 3.16 µM, first compound 0.0316 µM) 38.1% | viability, T/C (second compound 3.16 µM, first compound 0.1 µM) 17.7% | viability, T/C (second compound 10 µM, first compound 0.000316 µM) 48.3% | viability, T/C (second compound 10 µM, first compound 0.001 µM) 50.7% | viability, T/C (second compound 10 µM, first compound 0.00316 µM) 45.8% | viability, T/C (second compound 10 µM, first compound 0.01 µM) 36.3% | viability, T/C (second compound 10 µM, first compound 0.0316 µM) 26.8% | viability, T/C (second compound 10 µM, first compound 0.1 µM) 13%
0.321 nM: IC50 (second compound 10 µM)
34.2 nM: IC50 (second compound 0.1 µM)

CC(C)n1nc(-c2ccc3oc(N)nc3c2)c2c(N)ncnc21 + COc1c(OCCCN2CCOCC2)ccc2c3n(c(=NC(=O)c4cnc(N)nc4)nc12)CCN3
< 0.316 nM: IC50 (second compound 0.0316 µM) | IC50 (second compound 0.1 µM) | IC50 (second compound 0.316 µM) | IC50 (second compound 1 µM)
20.1 nM: IC50 (second compound 0.00316 µM)
10.4 nM: IC50 (second compound 0.01 µM)
inactive: viability, T/C [1] 82.6% | viability, T/C [2] 73.9% | viability, T/C [3] 79.2% | viability, T/C [4] 63.6% | viability, T/C [5] 40.7% | viability, T/C [6] 17.4% | viability, T/C [7] 64.9% | viability, T/C [8] 61.8% | viability, T/C [9] 62.2% | viability, T/C [10] 49.2% | viability, T/C [11] 33.4% | viability, T/C [12] 14.4% | viability, T/C [13] 40.3% | viability, T/C [14] 34.1% | viability, T/C [15] 34.9% | viability, T/C [16] 28.6% | viability, T/C [17] 18.5% | viability, T/C [18] 11.5% | viability, T/C [19] 14.7% | viability, T/C [20] 15.1% | viability, T/C [21] 15.1% | viability, T/C [22] 13.2%
active: viability, T/C [23] 8.07% | viability, T/C [24] 4.79% | viability, T/C [25] 5.33% | viability, T/C [26] 5.54% | viability, T/C [27] 5.8% | viability, T/C [28] 5.35% | viability, T/C [29] 4.04% | viability, T/C [30] 3.54% | viability, T/C [31] 2.62% | viability, T/C [32] 3.45% | viability, T/C [33] 3.33% | viability, T/C [34] 3.45% | viability, T/C [35] 3.43% | viability, T/C [36] 2.69%
